# Where two headings read alike, the source gives them in different places.
# Key:
# [1] = target: EGFR del19/T790M/C797S (Homo sapiens, UniProt P00533, C797S/DEL746-750/T790M); experiment: Biochemical EGFR kinase assay (Lance Ultra TR-FRET), triple mutant del19/T790M/C797S
# Summary of the method: (§1)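 Enzyme reactions lasted 1 hour at room temperature with test compounds between 0.003 and 10 μM, followed by 10 mM EDTA quench.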
# [2] = target: EGFR L858R/T790M/C797S (Homo sapiens, UniProt P00533, C797S/L858R/T790M); experiment: Biochemical EGFR kinase assay (Lance Ultra TR-FRET), triple mutant L858R/T790M/C797S
# Chain of EGFR L858R/T790M/C797S (P00533 25-1210 T790M/C797S/L858R): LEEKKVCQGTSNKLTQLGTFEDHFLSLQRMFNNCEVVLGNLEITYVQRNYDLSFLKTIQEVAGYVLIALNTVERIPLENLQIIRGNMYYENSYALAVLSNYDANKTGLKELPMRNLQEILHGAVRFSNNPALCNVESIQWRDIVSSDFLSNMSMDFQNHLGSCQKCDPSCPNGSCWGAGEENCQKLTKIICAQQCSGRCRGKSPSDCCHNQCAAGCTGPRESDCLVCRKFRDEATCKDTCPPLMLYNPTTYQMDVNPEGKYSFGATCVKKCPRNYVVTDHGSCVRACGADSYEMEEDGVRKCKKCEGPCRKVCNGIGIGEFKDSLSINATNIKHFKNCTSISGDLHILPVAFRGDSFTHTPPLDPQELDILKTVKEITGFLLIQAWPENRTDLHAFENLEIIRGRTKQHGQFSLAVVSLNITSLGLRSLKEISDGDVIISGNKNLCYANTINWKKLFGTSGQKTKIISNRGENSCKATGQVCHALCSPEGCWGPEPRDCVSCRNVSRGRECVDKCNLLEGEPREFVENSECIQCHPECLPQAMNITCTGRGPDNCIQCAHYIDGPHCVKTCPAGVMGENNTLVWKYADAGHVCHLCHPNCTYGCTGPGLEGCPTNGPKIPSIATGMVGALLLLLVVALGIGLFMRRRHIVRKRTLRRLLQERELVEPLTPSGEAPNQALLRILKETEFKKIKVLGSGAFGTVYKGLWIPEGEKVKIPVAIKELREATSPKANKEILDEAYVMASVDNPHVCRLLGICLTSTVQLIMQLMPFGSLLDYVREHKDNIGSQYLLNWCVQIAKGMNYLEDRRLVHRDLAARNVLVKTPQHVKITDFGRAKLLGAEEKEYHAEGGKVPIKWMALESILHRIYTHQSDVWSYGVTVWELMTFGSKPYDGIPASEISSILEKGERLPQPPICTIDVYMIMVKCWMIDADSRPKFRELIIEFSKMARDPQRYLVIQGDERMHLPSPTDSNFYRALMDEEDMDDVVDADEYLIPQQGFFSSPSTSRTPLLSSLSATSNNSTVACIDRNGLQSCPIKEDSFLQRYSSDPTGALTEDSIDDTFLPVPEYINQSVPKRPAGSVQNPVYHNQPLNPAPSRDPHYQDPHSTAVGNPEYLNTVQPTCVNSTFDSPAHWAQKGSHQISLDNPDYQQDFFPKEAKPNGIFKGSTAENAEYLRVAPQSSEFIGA
# Summary of the method: as §1
# [3] = target: EGFR del19/C797S (Homo sapiens, UniProt P00533, C797S/DEL746-750); experiment: Biochemical EGFR kinase assay (Lance Ultra TR-FRET), double mutant del19/C797S
# Chain of EGFR del19/C797S (P00533 with tags, fused parts or gaps DEL746-750/C797S): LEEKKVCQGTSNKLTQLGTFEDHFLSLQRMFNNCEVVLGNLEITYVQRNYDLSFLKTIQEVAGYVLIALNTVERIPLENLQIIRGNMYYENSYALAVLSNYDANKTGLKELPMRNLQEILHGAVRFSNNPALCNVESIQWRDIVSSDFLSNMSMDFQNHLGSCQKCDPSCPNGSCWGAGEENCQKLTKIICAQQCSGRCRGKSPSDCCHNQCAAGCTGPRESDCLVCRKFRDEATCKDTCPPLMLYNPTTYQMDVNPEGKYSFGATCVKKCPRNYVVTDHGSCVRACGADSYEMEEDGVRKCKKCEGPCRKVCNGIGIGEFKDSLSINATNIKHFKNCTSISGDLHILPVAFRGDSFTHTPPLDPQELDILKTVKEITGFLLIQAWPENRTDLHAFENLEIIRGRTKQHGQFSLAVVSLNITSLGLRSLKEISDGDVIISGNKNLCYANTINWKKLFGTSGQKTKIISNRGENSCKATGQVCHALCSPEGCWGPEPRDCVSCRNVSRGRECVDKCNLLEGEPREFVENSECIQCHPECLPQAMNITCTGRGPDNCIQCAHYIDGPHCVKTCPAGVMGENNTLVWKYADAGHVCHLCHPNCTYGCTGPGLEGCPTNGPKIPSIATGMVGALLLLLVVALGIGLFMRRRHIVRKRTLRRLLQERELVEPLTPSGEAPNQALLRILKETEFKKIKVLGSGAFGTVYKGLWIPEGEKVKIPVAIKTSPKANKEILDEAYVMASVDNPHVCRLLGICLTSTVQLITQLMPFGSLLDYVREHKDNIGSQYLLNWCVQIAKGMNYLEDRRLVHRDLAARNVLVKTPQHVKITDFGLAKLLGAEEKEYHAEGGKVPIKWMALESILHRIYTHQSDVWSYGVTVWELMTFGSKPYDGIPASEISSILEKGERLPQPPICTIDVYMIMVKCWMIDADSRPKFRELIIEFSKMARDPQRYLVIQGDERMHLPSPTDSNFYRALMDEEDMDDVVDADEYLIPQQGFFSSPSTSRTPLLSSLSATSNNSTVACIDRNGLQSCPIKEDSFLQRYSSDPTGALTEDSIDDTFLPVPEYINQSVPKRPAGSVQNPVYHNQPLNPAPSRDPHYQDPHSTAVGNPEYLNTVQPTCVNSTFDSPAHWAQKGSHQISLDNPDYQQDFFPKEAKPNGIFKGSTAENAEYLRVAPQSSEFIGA
# Summary of the method: as §1
# [4] = target: EGFR L858R/C797S (Homo sapiens, UniProt P00533, C797S/L858R); experiment: Biochemical EGFR kinase assay (Lance Ultra TR-FRET), double mutant L858R/C797S
# Chain of EGFR L858R/C797S (P00533 25-1210 C797S/L858R): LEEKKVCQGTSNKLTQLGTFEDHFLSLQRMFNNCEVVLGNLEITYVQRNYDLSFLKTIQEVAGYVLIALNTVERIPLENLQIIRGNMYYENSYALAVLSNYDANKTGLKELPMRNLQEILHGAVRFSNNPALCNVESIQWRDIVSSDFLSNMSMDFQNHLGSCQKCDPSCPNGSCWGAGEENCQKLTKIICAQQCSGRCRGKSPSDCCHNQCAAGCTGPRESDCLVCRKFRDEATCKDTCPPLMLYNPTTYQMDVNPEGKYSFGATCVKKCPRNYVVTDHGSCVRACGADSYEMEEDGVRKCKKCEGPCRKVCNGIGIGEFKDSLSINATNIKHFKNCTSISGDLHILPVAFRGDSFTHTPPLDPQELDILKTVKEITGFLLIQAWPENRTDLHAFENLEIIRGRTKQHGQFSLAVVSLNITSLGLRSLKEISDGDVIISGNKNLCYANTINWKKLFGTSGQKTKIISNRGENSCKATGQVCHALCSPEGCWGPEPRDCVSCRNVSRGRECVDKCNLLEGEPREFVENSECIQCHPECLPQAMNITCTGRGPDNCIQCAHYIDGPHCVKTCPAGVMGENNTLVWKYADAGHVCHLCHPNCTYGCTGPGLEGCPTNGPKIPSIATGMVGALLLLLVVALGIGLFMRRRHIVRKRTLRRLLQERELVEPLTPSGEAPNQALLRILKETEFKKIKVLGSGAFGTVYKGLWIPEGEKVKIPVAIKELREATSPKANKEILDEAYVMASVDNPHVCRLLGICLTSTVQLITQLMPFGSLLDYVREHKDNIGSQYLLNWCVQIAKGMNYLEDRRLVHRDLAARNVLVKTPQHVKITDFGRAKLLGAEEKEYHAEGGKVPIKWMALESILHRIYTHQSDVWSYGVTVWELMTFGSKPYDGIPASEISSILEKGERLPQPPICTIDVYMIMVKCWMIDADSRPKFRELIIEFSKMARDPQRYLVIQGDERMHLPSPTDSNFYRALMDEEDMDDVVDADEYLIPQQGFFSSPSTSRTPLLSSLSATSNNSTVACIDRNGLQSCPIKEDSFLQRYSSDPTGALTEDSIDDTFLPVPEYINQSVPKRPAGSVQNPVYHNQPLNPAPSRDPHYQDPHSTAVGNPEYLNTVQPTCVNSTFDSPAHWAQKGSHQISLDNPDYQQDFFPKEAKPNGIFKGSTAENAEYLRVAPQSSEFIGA
# Summary of the method: as §1
# [5] = target: EGFR wildtype (WT) (Homo sapiens, UniProt P00533); experiment: Biochemical EGFR kinase assay (Lance Ultra TR-FRET), wildtype
# Summary of the method: as §1
# [6] = IC50 del19/T790M/C797S (nM) 100 μM ATP, 100 μM ATP
# [7] = Km ATP, read-out: IC50 del19/T790M/C797S (nM) Km ATP
# [8] = IC50 L858R/T790M/C797S (nM) 100 μM ATP, 100 μM ATP
# [9] = Km ATP, read-out: IC50 L858R/T790M/C797S (nM) Km ATP
# [10] = IC50 del19/C797S (nM) 100 μM ATP, 100 μM ATP
# [11] = Km ATP, read-out: IC50 del19/C797S (nM) Km ATP
# [12] = IC50 L858R/C797S (nM) 100 μM ATP, 100 μM ATP
# [13] = Km ATP, read-out: IC50 L858R/C797S (nM) Km ATP
# [14] = IC50 WT (nM) 100 μM ATP, 100 μM ATP
# [15] = Km ATP, read-out: IC50 WT (nM) Km ATP
# Chain of EGFR del19/T790M/C797S (P00533 with tags, fused parts or gaps DEL746-750/T790M/C797S): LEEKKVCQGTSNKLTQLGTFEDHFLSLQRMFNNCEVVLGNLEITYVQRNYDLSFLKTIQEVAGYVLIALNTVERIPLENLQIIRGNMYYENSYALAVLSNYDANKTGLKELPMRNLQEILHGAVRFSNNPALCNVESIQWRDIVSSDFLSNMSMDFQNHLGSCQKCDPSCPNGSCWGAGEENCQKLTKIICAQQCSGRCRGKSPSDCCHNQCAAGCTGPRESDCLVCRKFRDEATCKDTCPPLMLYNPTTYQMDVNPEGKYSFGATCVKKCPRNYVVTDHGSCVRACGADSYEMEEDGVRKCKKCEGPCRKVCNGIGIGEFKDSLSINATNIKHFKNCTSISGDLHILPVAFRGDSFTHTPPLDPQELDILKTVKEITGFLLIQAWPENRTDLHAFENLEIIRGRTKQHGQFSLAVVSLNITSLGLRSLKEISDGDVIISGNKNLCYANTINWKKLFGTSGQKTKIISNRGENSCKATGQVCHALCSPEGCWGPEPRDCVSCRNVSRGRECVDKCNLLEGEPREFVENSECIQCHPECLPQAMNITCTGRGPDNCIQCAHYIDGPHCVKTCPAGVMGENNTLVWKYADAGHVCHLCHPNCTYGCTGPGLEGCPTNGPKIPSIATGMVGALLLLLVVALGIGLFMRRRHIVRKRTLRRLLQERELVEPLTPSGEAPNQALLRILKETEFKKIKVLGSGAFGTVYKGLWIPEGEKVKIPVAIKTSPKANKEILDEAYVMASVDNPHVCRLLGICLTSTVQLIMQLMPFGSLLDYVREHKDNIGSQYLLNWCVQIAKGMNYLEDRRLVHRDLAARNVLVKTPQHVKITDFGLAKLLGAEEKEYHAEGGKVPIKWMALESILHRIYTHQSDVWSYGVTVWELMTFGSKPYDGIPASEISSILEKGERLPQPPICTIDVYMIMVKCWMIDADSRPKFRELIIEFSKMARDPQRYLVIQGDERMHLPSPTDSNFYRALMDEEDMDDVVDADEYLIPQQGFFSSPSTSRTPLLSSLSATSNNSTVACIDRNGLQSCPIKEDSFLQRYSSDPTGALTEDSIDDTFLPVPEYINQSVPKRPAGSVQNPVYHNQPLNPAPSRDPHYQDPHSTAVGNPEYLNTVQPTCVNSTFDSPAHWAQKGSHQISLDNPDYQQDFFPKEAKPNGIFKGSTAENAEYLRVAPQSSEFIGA
"IC50 [1, 6] [nM]","IC50 [1, 7] [nM]","IC50 [2, 8] [nM]","IC50 [2, 9] [nM]","IC50 [3, 10] [nM]","IC50 [3, 11] [nM]","IC50 [4, 12] [nM]","IC50 [4, 13] [nM]","IC50 [5, 14] [nM]","IC50 [5, 15] [nM]","IC50 ([1]; read-out: IC50 del19/T790M/C797S (nM) 100 μM ATP, 100 μM ATP) [nM]","IC50 ([2]; read-out: IC50 L858R/T790M/C797S (nM) 100 μM ATP, 100 μM ATP) [nM]","IC50 ([3]; read-out: IC50 del19/C797S (nM) 100 μM ATP, 100 μM ATP) [nM]","IC50 ([4]; read-out: IC50 L858R/C797S (nM) 100 μM ATP, 100 μM ATP) [nM]","IC50 ([5]; read-out: IC50 WT (nM) 100 μM ATP, 100 μM ATP) [nM]",SMILES
0.6,0.3,0.7,0.3,1.9,0.8,18,0.7,> 10000,8.6,,,,,,"O=S(=O)(C1CC1)n1cc(-c2nccc(Nc3cc(N[C@H]4CC[C@@H](O)CC4)c(-c4ccco4)cn3)n2)cn1 [Example 83, (1s,4s)-4-((2-((2-(1-(Cyclopropylsulfonyl)-1H-pyrazol-4-yl)pyrimidin-4-yl)amino)-5-(furan-2-yl)pyridin-4-yl)amino)cyclohexan-1-ol]"
1.6,1.4,0.2,0.1,253,86.8,67.2,19.7,> 10000,53.7,,,,,,"CO[C@H]1CCN(c2nccc(Nc3cc(N[C@H]4CC[C@@](C)(O)CC4)c(-c4ccn(C(F)F)n4)cn3)n2)C[C@H]1F [Example 111, (1s,4s)-4-((5-(1-(Difluoromethyl)-1H-pyrazol-3-yl)-2-((2-((3R,4S)-3-fluoro-4-methoxypiperidin-1-yl)pyrimidin-4-yl)amino)pyridin-4-yl)amino)-1-methylcyclohexan-1-ol]"
13.1,,12.8,,27.8,,259,,> 10000,,,,,,,"CN(CC(F)F)C[C@H]1CC[C@@H](Nc2cc(Nc3ccnc(-c4cnn(S(=O)(=O)C5CC5)c4)n3)ncc2-c2ccn(CC(F)F)n2)CC1 [Example 245, N^2-(2-(1-(Cyclopropylsulfonyl)-1H-pyrazol-4-yl)pyrimidin-4-yl)-N^4-((1s,4s)-4-(((2,2-difluoroethyl)(methyl)amino)methyl)cyclohexyl)-5-(1-(2,2-difluoroethyl)-1H-pyrazol-3-yl)pyridine-2,4-diamine]"
,0.3,,0.1,,4.6,,3.6,,10.1,,,,,,"CN(C)C[C@H]1C[C@H](CNc2cc(Nc3ccnc(-c4cnn(S(=O)(=O)C5CC5)c4)n3)ncc2-c2ccn(C)n2)C1 [Example 239, N^2-(2-(1-(Cyclopropylsulfonyl)-1H-pyrazol-4-yl)pyrimidin-4-yl)-N^4-(((1r,3r)-3-((dimethylamino)methyl)cyclobutyl)methyl)-5-(1-methyl-1H-pyrazol-3-yl)pyridine-2,4-diamine]"
0.6,0.4,0.4,0.2,0.9,0.8,,0.3,183,0.6,,,,,,"Cn1nc(-c2cnc(Nc3ccnc(-c4cnn(S(=O)(=O)C5CC5)c4)n3)cc2N[C@H]2CC[C@@](C)(O)CC2)cc1C(C)(C)O [Example 293, (1s,4s)-4-((2-((2-(1-(Cyclopropylsulfonyl)-1H-pyrazol-4-yl)pyrimidin-4-yl)amino)-5-(5-(2-hydroxypropan-2-yl)-1-methyl-1H-pyrazol-3-yl)pyridin-4-yl)amino)-1-methylcyclohexan-1-ol]"
,0.6,,0.3,,2.2,,0.2,,1.7,,,,,,"COCn1ccc(-c2cnc(Nc3ccnc(-c4cnn(S(=O)(=O)C5CC5)c4)n3)cc2NC(C)C)n1 [Example 303, N^2-(2-(1-(Cyclopropylsulfonyl)-1H-pyrazol-4-yl)pyrimidin-4-yl)-N^4-isopropyl-5-(1-(methoxymethyl)-1H-pyrazol-3-yl)pyridine-2,4-diamine]"
,,,,,,,,,,8.6,21.8,553,267,> 10000,"O=S(=O)(C1CC1)n1cc(-c2nccc(Nc3cc(N[C@H]4CC[C@](O)(C(F)(F)F)CC4)c(-c4ccn(C(F)F)n4)cn3)n2)cn1 [Example 11, (1s,4s)-4-((2-((2-(1-(Cyclopropylsulfonyl)-1H-pyrazol-4-yl)pyrimidin-4-yl)amino)-5-(1-(difluoromethyl)-1H-pyrazol-3-yl)pyridin-4-yl)amino)-1-(trifluoromethyl)cyclohexan-1-ol]"
,0.3,,0.1,,6.4,,4.8,,13.1,,,,,,"CN(C)C[C@H]1C[C@H](CNc2cc(Nc3ccnc(-c4cnn(S(=O)(=O)C5CC5)c4)n3)ncc2-c2ccn(C(F)F)n2)C1 [Example 209, N^2-(2-(1-(Cyclopropylsulfonyl)-1H-pyrazol-4-yl)pyrimidin-4-yl)-5-(1-(difluoromethyl)-1H-pyrazol-3-yl)-N^4-(((1r,3r)-3-((dimethylamino)methyl)cyclobutyl)methyl)pyridine-2,4-diamine]"
,1.4,,0.7,,13.3,,7.9,,18.8,,,,,,"Cc1nn(CC(F)(F)F)cc1-c1nccc(Nc2cc(N[C@H]3CC[C@@H](CCO)CC3)c(-c3ccn(C(F)F)n3)cn2)n1 [Example 326, 2-((1s,4s)-4-((5-(1-(Difluoromethyl)-1H-pyrazol-3-yl)-2-((2-(3-methyl-1-(2,2,2-trifluoroethyl)-1H-pyrazol-4-yl)pyrimidin-4-yl)amino)pyridin-4-yl)amino)cyclohexyl)ethan-1-ol]"
0.4,0.4,0.5,0.2,0.9,0.9,6.1,1.9,9600,5.8,,,,,,"Cn1ccc(-c2cnc(Nc3ccnc(-c4cnn(S(=O)(=O)C5CC5)c4)n3)cc2NC[C@H]2CC[C@](C)(O)CC2)n1 [Example 48, (1r,4r)-4-(((2-((2-(1-(Cyclopropylsulfonyl)-1H-pyrazol-4-yl)pyrimidin-4-yl)amino)-5-(1-methyl-1H-pyrazol-3-yl)pyridin-4-yl)amino)methyl)-1-methylcyclohexan-1-ol]"
0.5,0.3,0.3,0.2,0.5,0.6,3.8,0.3,4880,3.4,,,,,,"C[C@]1(O)CC[C@@H](Nc2cc(Nc3ccnc(-c4cnn(S(=O)(=O)C5CC5)c4)n3)ncc2-c2cn3c(n2)CCC3)CC1 [Example 274, (1s,4s)-4-((2-((2-(1-(Cyclopropylsulfonyl)-1H-pyrazol-4-yl)pyrimidin-4-yl)amino)-5-(6,7-dihydro-5H-pyrrolo[1,2-a]imidazol-2-yl)pyridin-4-yl)amino)-1-methylcyclohexan-1-ol]"
0.6,0.5,0.7,0.3,0.5,0.5,,0.5,2980,5,,,,,,"C[C@]1(O)CC[C@@H](Nc2cc(Nc3ccnc(-c4cnn(S(=O)(=O)C5CC5)c4)n3)ncc2-c2ccn(CC(F)F)n2)CC1 [Example 241, (1s,4s)-4-((2-((2-(1-(Cyclopropylsulfonyl)-1H-pyrazol-4-yl)pyrimidin-4-yl)amino)-5-(1-(2,2-difluoroethyl)-1H-pyrazol-3-yl)pyridin-4-yl)amino)-1-methylcyclohexan-1-ol]"

# From patent US12258327B2, “5-membered heteroaryl-containing aminopyridine compounds as EGFR inhibitors” (YUHAN CORPORATION, priority 2021, dated 2025)
